# Results published in patent publication US12252484B2, “Pyrazolopyridine compounds for the treatment of autoimmune disease” (Hoffmann-La Roche Inc., priority 2018, dated 2025).
# pIC50: −log10 of the molar value.
# Molecular target: T1, human TLR7 (Homo sapiens, UniProt Q9NYK1)
# T1 sequence (Q9NYK1 27-1049): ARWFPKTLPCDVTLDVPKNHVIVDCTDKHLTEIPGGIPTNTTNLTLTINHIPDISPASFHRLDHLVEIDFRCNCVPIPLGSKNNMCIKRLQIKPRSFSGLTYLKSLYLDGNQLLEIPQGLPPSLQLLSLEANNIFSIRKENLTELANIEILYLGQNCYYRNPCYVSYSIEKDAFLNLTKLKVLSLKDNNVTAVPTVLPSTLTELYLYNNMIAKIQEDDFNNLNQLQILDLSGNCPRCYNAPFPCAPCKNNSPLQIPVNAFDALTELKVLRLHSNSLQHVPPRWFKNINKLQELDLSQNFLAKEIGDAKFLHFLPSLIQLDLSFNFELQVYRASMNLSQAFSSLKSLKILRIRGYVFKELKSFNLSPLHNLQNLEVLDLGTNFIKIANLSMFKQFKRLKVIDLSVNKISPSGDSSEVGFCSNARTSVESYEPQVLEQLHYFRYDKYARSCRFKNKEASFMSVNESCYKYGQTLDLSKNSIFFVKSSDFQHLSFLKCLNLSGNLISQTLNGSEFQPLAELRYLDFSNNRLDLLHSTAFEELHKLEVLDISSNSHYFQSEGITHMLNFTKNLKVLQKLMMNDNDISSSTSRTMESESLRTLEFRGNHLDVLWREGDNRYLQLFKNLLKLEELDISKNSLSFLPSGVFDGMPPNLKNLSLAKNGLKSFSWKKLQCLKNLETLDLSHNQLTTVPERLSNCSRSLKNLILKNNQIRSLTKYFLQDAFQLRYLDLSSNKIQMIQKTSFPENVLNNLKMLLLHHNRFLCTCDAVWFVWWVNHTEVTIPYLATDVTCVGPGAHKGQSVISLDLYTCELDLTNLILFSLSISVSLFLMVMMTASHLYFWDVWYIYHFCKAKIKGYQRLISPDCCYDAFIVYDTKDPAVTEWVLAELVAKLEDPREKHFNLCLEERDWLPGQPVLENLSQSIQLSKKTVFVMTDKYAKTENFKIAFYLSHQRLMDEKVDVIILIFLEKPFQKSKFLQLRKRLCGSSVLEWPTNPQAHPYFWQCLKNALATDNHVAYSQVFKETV
# Experiment: HEK293-Blue-hTLR-7 cells assay (SEAP reporter, R848 stimulation)
# Assay type: cell-based
# Settings: HEK293-Blue-hTLR-7 cells, R848 ligand, 20 hrs incubation; read-out: TLR7 IC50
# Experimental: The following tests were carried out in order to determine the activity of the compounds of formula (I) in HEK293-Blue-hTLR-7/8/9 cells assay.
# HEK293-Blue-hTLR-7 Cells Assay:
# A stable HEK293-Blue-hTLR-7 cell line was purchased from InvivoGen (Cat. #: hkb-htlr7, San Diego, California, USA). These cells were originally designed for studying the stimulation of human TLR7 by monitoring the activation of NF-κB. A SEAP (secreted embryonic alkaline phosphatase) reporter gene was placed under the control of the IFN-β minimal promoter fused to five NF-κB and AP-1-binding sites. The SEAP was induced by activating NF-κB and AP-1 via stimulating HEK-Blue hTLR7 cells with TLR7 ligands. Therefore the reporter expression was declined by TLR7 antagonist under the stimulation of a ligand, such as R848 (Resiquimod), for incubation of 20 hrs. The cell culture supernatant SEAP reporter activity was determined using QUANTI-Blue™ kit (Cat. #: rep-qb1, Invivogen, San Diego, Ca, USA) at a wavelength of 640 nm, a detection medium that turns purple or blue in the presence of alkaline phosphatase.
# HEK293-Blue-hTLR7 cells were incubated at a density of 250,000˜450,000 cells/mL in a volume of 170 μL in a 96-well plate in Dulbecco's Modified Eagle's medium (DMEM) containing 4.5 g/L glucose, 50 U/mL penicillin, […], […], 2 mM L-glutamine, 10% (v/v) heat-inactivated fetal bovine serum with addition of 20 μL test compound in a serial dilution in the presence of final DMSO at 1% and 10 μL of 20 uM R848 in above DMEM, perform incubation under 37° C. in a CO2 incubator for 20 hrs. Then 20 μL of the supernatant from each well was incubated with 180 μL Quanti-blue substrate solution at 37° C. for 2 hrs and the absorbance was read at 620˜655 nm using a spectrophotometer. The signalling pathway that TLR7 activation leads to downstream NF-κB activation has been widely accepted, and therefore similar reporter assay was modified for evaluating TLR7 antagonist.
row,Compound,pIC50
1,"C[C@@H]1CN(c2ccc(C#N)n3nccc23)C[C@H](C(=O)NC2CC3CCC(C2)N3)O1 (stereo partly drawn) [Example 23, Exo-(2R,6R)-N-[8-azabicyclo[3.2.1]octan-3-yl]-4-(7-cyanopyrazolo[1,5-a]pyridin-4-yl)-6-methyl-morpholine-2-carboxamide]",7.57
2,"C[C@@H]1CN(c2ccc(C#N)n3nccc23)C[C@H](C(=O)NC2CCCNCC2)O1 (stereo partly drawn) [Example 6, (2R,6R)-N-(azepan-4-yl)-4-(7-cyanopyrazolo[1,5-a]pyridin-4-yl)-6-methyl-morpholine-2-carboxamide]",7.80
3,"C[C@@H]1CN(c2ccc(C#N)n3nccc23)C[C@H](C(=O)NC2CCOCC2)O1 [Example 4, (2R,6R)-4-(7-cyanopyrazolo[1,5-a]pyridin-4-yl)-6-methyl-N-tetrahydropyran-4-yl-morpholine-2-carboxamide]",6.39
4,"C[C@H]1C[C@@H](N)CN(c2ccc(C#N)n3nccc23)C1 [Example 43, 4-[(3R,5S)-3-amino-5-methyl-1-piperidyl]pyrazolo[1,5-a]pyridine-7-carbonitrile]",7.47
5,"C[C@@H]1CN(c2ccc(C#N)n3nccc23)C[C@H](C(=O)NCC2CCNC2)O1 (stereo partly drawn) [Example 40, (2R,6R)-4-(7-cyanopyrazolo[1,5-a]pyridin-4-yl)-6-methyl-N-(pyrrolidin-3-ylmethyl)morpholine-2-carboxamide]",6.68
6,"C[C@@H]1CN(c2ccc(C#N)n3nccc23)C[C@H](C(=O)NCC2CN(C)CCO2)O1 (stereo partly drawn) [Example 7, (2R,6R)-4-(7-cyanopyrazolo[1,5-a]pyridin-4-yl)-6-methyl-N-[(4-methylmorpholin-2-yl)methyl]morpholine-2-carboxamide]",7.17
7,"C[C@@H]1CN(c2ccc(Cl)n3nccc23)C[C@H](C(=O)NC2CCN(C)CC2)O1 [Example 38, (2R,6R)-4-(7-chloropyrazolo[1,5-a]pyridin-4-yl)-6-methyl-N-(1-methyl-4-piperidyl)morpholine-2-carboxamide]",7.55
8,"CCC(O)CNC(=O)[C@H]1CN(c2ccc(C#N)n3nccc23)C[C@@H](C)O1 (stereo partly drawn) [Example 13, (2R,6R)-4-(7-cyanopyrazolo[1,5-a]pyridin-4-yl)-N-(2-hydroxybutyl)-6-methyl-morpholine-2-carboxamide]",6.31
9,"C[C@@H]1CN(c2ccc(C#N)n3nccc23)C[C@H](C(=O)NC2CC3CCC2CN3C)O1 (stereo partly drawn) [Example 34, (2R,6R)-4-(7-cyanopyrazolo[1,5-a]pyridin-4-yl)-6-methyl-N-(2-methyl-2-azabicyclo[2.2.2]octan-5-yl)morpholine-2-carboxamide]",8.00
10,"C[C@@H]1CN(c2ccc(C#N)n3nccc23)C[C@H](C(=O)NC2CC3CC2CN3)O1 (stereo partly drawn) [Example 36, (2R,6R)-N-(2-azabicyclo[2.2.1]heptan-5-yl)-4-(7-cyanopyrazolo[1,5-a]pyridin-4-yl)-6-methyl-morpholine-2-carboxamide]",6.89
11,"C[C@@H]1CN(c2ccc(C#N)n3nccc23)C[C@H](C(=O)NC2CC3CCC(C2)N3C)O1 (stereo partly drawn) [Example 33, (2R,6R)-4-(7-cyanopyrazolo[1,5-a]pyridin-4-yl)-6-methyl-N-(8-methyl-8-azabicyclo[3.2.1]octan-3-yl)morpholine-2-carboxamide]",8.40

# More lines, in order of rising pIC50, values ahead:
row,pIC50,Compound
1,6.66,"C[C@@H]1CN(c2ccc(C#N)n3nccc23)C[C@H](C(=O)NC23CC(CO)(C2)C3)O1 [Example 15, (2R,6R)-4-(7-cyanopyrazolo[1,5-a]pyridin-4-yl)-N-[3-(hydroxymethyl)-1-bicyclo[1.1.1]pentanyl]-6-methyl-morpholine-2-carboxamide]"
2,6.72,"C[C@@H]1CN(c2ccc(C#N)n3nccc23)C[C@H](C(=O)N2CC(N)C2)O1 [Example 8, 4-[(2R,6R)-2-(3-aminoazetidine-1-carbonyl)-6-methyl-morpholin-4-yl]pyrazolo[1,5a]pyridine-7-carbonitrile]"
3,6.77,"C[C@H]1C[C@@H](NCC#N)CN(c2ccc(C#N)n3nccc23)C1 [Example 46, 4-[(3R,5S)-3-(cyanomethylamino)-5-methyl-1-piperidyl]pyrazolo[1,5-a]pyridine-7-carbonitrile]"
4,7.19,"C[C@H]1C[C@@H](NC(=O)[C@H](C)N)CN(c2ccc(C#N)n3nccc23)C1 [Example 44, (2S)-2-amino-N-[(3R,5S)-1-(7-cyanopyrazolo[1,5-a]pyridin-4-yl)-5-methyl-3-piperidyl]propanamide]"
5,7.37,"C[C@@H]1CN(c2ccc(C#N)n3nccc23)C[C@H](C(=O)NC2CCNCC2)O1 [Example 24, (2R,6R)-4-(7-cyanopyrazolo[1,5-a]pyridin-4-yl)-6-methyl-N-(4-piperidyl)morpholine-2-carboxamide]"
6,7.51,"C[C@@H]1CN(c2ccc(C#N)n3nccc23)C[C@H](C(=O)NC2CN(C)CC23CC3)O1 (stereo partly drawn) [Example 32, (2R,6R)-4-(7-cyanopyrazolo[1,5-a]pyridin-4-yl)-6-methyl-N-(5-methyl-5-azaspiro[2.4]heptan-7-yl)morpholine-2-carboxamide]"
7,7.92,"C[C@@H]1CN(c2ccc(C#N)n3nccc23)C[C@H](C(=O)Nc2ccc(C(=O)N3CCNCC3)cc2)O1 [Example 42, (2R,6R)-4-(7-cyanopyrazolo[1,5-a]pyridin-4-yl)-6-methyl-N-[4-(piperazine-1-carbonyl)phenyl]morpholine-2-carboxamide]"
8,8.05,"C[C@@H]1CN(c2ccc(C#N)n3nccc23)C[C@H](C(=O)NC2C3CCCC2CNC3)O1 (stereo partly drawn) [Example 37, (2R,6R)-N-(3-azabicyclo[3.3.1]nonan-9-yl)-4-(7-cyanopyrazolo[1,5-a]pyridin-4-yl)-6-methyl-morpholine-2-carboxamide]"
